Laboratory results from publication PMC8085067, “The dimer-monomer equilibrium of SARS-CoV-2 main protease is affected by small molecule inhibitors” (Scientific Reports, 2021).
“Also recorded” adds a separate entry of the source.

Target: SARS-CoV-2 M^pro dimer-monomer equilibrium (Severe acute respiratory syndrome coronavirus 2, UniProt P0DTD1)
Experiment: SAXS analysis of M^pro dimer-monomer equilibrium in presence of inhibitors
Conditions: for effect on M^pro dimer-monomer equilibrium (in words): SAXS; for αCp (rate of change of dissociation heat capacity with inhibitor concentration) / αS (rate of change of dissociation entropy with inhibitor concentration) / αG (rate of change of dissociation Gibbs free energy with inhibitor concentration): global SAXS fit, M^pro 30 μM; for αG (rate of change of dissociation Gibbs free energy with inhibitor concentration): inhibitor 30 and 60 μM, 30-45 °C

Q: What does the source list for Fc1c(F)c(N2CCOCCOCCOCCOCCOCC2)c(F)c(F)c1-c1nc(-c2ccccc2)no1 [Inhibitor 4, 16-(2,3,5,6-tetrafluoro-4-(3-phenyl-1,2,4-oxadiazol-5-yl)phenyl)-1,4,7,10,13-pentaoxa-16-azacyclooctadecane]?
A: effect on M^pro dimer-monomer equilibrium (in words): do not affect in a significant way the dimer-monomer equilibrium; also recorded: very weak stabilizing effect of the dimer; αCp (rate of change of dissociation heat capacity with inhibitor concentration): -2±2 10^-2 μM^-1; αS (rate of change of dissociation entropy with inhibitor concentration): -1±5 10^-2 μM^-1; αG (rate of change of dissociation Gibbs free energy with inhibitor concentration): 0.0±0.1 10^-2 μM^-1

Q: What does the source list for OCCN(CCOc1c(F)c(F)c(-c2nc(-c3ccncc3)no2)c(F)c1F)CCOc1c(F)c(F)c(-c2nc(-c3ccncc3)no2)c(F)c1F [Inhibitor 3]?
A: effect on M^pro dimer-monomer equilibrium (in words): do not affect in a significant way the dimer-monomer equilibrium; also recorded: does not alter the native dissociation equilibrium; αCp (rate of change of dissociation heat capacity with inhibitor concentration): 0±4 10^-2 μM^-1; αS (rate of change of dissociation entropy with inhibitor concentration): -8±4 10^-2 μM^-1; αG (rate of change of dissociation Gibbs free energy with inhibitor concentration): 0.00±0.08 10^-2 μM^-1

Q: Which “effect on M^pro dimer-monomer equilibrium (in words)” value does the source give for CCNC(=O)c1noc(-c2c(F)c(F)c(NCCN(CCNc3c(F)c(F)c(-c4nc(C(=O)NCC)no4)c(F)c3F)CCNc3c(F)c(F)c(-c4nc(C(=O)NCC)no4)c(F)c3F)c(F)c2F)n1 [Inhibitor 7, 5,5’,5”-(((nitrilotris(ethane-2,1-diyl))tris(azanediyl))tris(2,3,5,6-tetrafluorobenzene-4,1-diyl))tris(N-ethyl-1,2,4-oxadiazole-3-carboxamide)] here?
A: Its value is “mostly able to increase the dissociation equilibrium constant”.

Q: What about the “αCp (rate of change of dissociation heat capacity with inhibitor concentration)” value of the same compound?
A: Its value is -3±3 10^-2 μM^-1.

Q: And the “αS (rate of change of dissociation entropy with inhibitor concentration)” value?
A: The value was -5±2 10^-2 μM^-1.

Q: What about the “αG (rate of change of dissociation Gibbs free energy with inhibitor concentration)” value of the same compound?
A: The value was -0.19±0.07 10^-2 μM^-1.
